Experiments:
[1] = system: modified ribosomes from clones 010328R4; assay: In vitro translation: incorporation into position 49 of DHFR (pETDH49), S-30 from clone 010328R4; type: biochemical, E. coli; conditions: clone 010328R4 (group 1)
Procedure: (§1) In vitro Protein Translation. Protein translation reactions were carried out in 12-2000 μL of incubation mixture containing 0.4 μL/μL of S-30 system, 100 ng/μL of plasmid, 35 mM Tris acetate, pH 7.4, 190 mM potassium glutamate, 30 mM ammonium acetate, 2 mM DTT, 0.2 mg/mL total E. coli tRNA, 3.5% PEG 6000, 20 μg/mL folinic acid, 20 mM ATP and GTP, 5 mM CTP and UTP, 100 μM amino acids mixture, 0.5 μCi/μL of ^35S-methionine for analytical purposes only and 1 μg/mL rifampicin. In the case of plasmids having a gene with a TAG codon, a suppressor tRNA was added to a concentration of 0.8 μg/μL. Reactions were carried out at 37° C. for 1 h (for 12 μL reaction mixtures) to 1.5 h (for 2000 μL reaction mixtures) and terminated by chilling on ice. Aliquots from in vitro translation mixtures were analyzed by SDS-PAGE followed by quantification of the radioactive bands by phosphorimager analysis.
The other two compounds gave about 1.5-2 times lower suppression efficiency (7-9 and 5-6%).

[2] = Fluorescence emission of dipeptidomimetics and of proteins containing them; type: physicochemical; conditions: as stated for comparison of 6 and wild-type BFP
From the text: Further, we prepared a modified DHFR having dipeptidomimetic 6 at position 10 at larger scale to investigate the fluorescence intensity of 6 in protein. The fluorescence emission spectra of wild-type DHFR and modified DHFR having 6 at position 10 were compared (FIG. 8) at 302 nm excitation wavelength.
Fluorescence Emission of an Artificial BFP Having Dipeptidomimetic 6. We designed fluorescent dipeptidomimetics 6-10 as stable analogues of GFP-chromophore. We anticipated their use to create artificial fluorescent proteins; to verify the same we replaced the chromophore of BFP with dipeptidomimetic 6 in order to prepare an artificial fluorescent protein. The fluorescence emission of 6 is near blue region of visible light spectrum (˜400 nm). Therefore, we compared the fluorescence emission intensity of artificial FP (artificial BFP 1) having 6 at position 66 with wild-type BFP, which has a fluorescence emission ˜450 nm. […] Wild-type and artificial BFP were prepared in a larger scale in a cell free translation system for fluorescence measurements.
A modified BFP construct, having a TAG codon in position 66 and a suppressor tRNACUA activated with 6 were used for the preparation of artificial BFP 1. […] As illustrated from FIG. 11, fluorescence intensity of artificial BFP 1 (emission maximum ˜375 nm) having 6 in position 66 is 20-fold greater than the wild-type BFP at similar protein concentrations. […]

[3] = system: modified ribosomes from clone 010326R6; assay: In vitro translation: suppression of TAG codon at position 66 of GFP (pETGFP66), S-30 from clone 010326R6; type: biochemical, Escherichia coli
Procedure: as §1
The free amino acids both have λex in the range 296-302 nm but the λem of 7 is somewhat red-shifted compared to that of 6. […] As a negative control, wild-type GFP synthesis from the modified mRNA in the presence of nonacylated tRNACUA was measured for each experiment. The amounts of GFP produced were quantified with a phosphoimager, which monitored the incorporation of ^35S-methionine into proteins. […]

[4] = system: modified ribosomes (23S rRNA modified); assay: In vitro translation: suppression of UAG codon at position 10 of DHFR mRNA, S-30 systems having modified ribosomes; type: biochemical, E. coli; conditions: position 10 of E. coli DHFR, relative to wild-type DHFR = 100
Procedure: Preparation of Aminoacyl-tRNACUAs. The activation of suppressor tRNACUAs was carried out as described previously.^4,5 Briefly, 100-μL reaction mixture of 100 mM Na Hepes, pH 7.5, contained 1.0 mM ATP, 15 mM MgCl2, 100 μg of suppressor tRNACUA-COH, 0.5 A260 unit of N-pentenoyl-protected aminoacyl-pdCpA, 15% DMSO, and 100 units of T4 RNA ligase. The reaction mixture was incubated at 37° C. for 1.5 h and quenched by the addition of 0.1 vol of 3 M NaOAc, pH 5.2. The N-protected aminoacylated tRNA was precipitated with 3 vol of cold ethanol. The efficiency of ligation was estimated by 8% polyarylamide-7 M urea gel electrophoresis (pH 5.0).
The N-pentenoyl-protected aminoacyl-tRNACUAs were deprotected by treatment with 5 mM aqueous […] at 25° C. for 15 min. The solution was centrifuged, and the supernatant was adjusted to 0.3 M NaOAc and treated with 3 vol of cold ethanol to precipitate the aminoacylated tRNA. The tRNA pellet was collected by centrifugation, washed with 70% aq EtOH, air dried and dissolved in 20 μL of RNase free water.
Preparation of S-30 Extracts from Cells Having Modified Ribosomes. Aliquots (5-10 μL) from liquid stocks of E. coli BL-21 (DE-3) cells, harboring plasmids with a wild-type or modified rrnB gene, were placed on LB agar supplemented with 100 µg/mL of ampicillin and grown at 37° C. for 16-18 h. One colony was picked from each agar plate and transferred into 3 mL of LB medium supplemented with 100 μg/mL of ampicillin and 0.5 mM IPTG.
as §1
Incorporation of Dipeptides 2, 3 and 4 into DHFR Using the Modified Ribosomes. Initially, glycylphenylalanine (2) was chosen to screen the selected modified ribosomes for their ability to incorporate a dipeptide into DHFR. It was anticipated that minimal steric hindrance and more flexibility at the N-terminus of the dipeptide (a glycine residue) would enable optimal positioning of the amine for a nucleophilic attack in the PTC of the modified ribosomes. A modified DHFR construct, having a TAG codon in position 10 (pETDH10 plasmid) was used for the incorporation of glycylphenylalanine.
The suppression efficiencies were expressed relative to the wild-type DHFR synthesis. As a negative control, wild-type DHFR synthesis in the presence of nonacylated-tRNACUA was measured for each experiment. The amounts of DHFR produced were quantified with a phosphoimager, which monitored the incorporation of ^35S-methionine into DHFR. Using glycylphenylalanyl-tRNACUA, S-30 preparations having the modified ribosomes from clone groups 1, 2, 3 and 9 produced full length DHFR in ˜9% yields relative to the wild-type DHFR synthesis (Table 3). The modified ribosomes from clone groups 4-8 incorporated glycylphenylalanine (2) with low yields (˜2-4%). For dipeptide 2, best incorporation yields (up to 12%) were obtained by S-30 system having modified ribosomes from clone group 9 (2057AGUGAGA2063 and 2502AUCCGA2507).

SMILES	suppression efficiency (full-length DHFR synthesis relative to wild-type) [1]	fluorescence emission [2]	suppression yield (full length GFP) relative to wild-type GFP synthesis [3]	Suppression efficiency in different S-30 systems, having modified ribosomes (%) ([4]; clone group 1)	Suppression efficiency in different S-30 systems, having modified ribosomes (%) ([4]; clone group 9)
C=CCCC(=O)N[C@H]1CCCCN(CC(=O)OC2C(COP(=O)(O)OC3CC(n4ccc(N)nc4=O)OC3COP(=O)(O)O)OC(n3cnc4c(N)ncnc43)C2O)C1=O (stereo partly drawn) [cyclic peptidomimetic 145, (S)-2-(2-Oxo-3-(pent-4-enamido)azepan-1-yl)acetyl-pdCpA]	11-13%	–	–	–	–
COc1ccc(-c2oc(CN)nc2C(=O)O)cc1 [dipeptidomimetic 6]	–	~400 nm	~6.5%	10.2 ± 1.7%	9.8 ± 2.1%

Reference: patent US11434492B2, “Ribosome-mediated incorporation of peptides and peptidomimetics” (Arizona Board of Regents on behalf of Arizona State …, priority 2015, dated 2022)
